The results in this text go back to patent publication US20120308567A1, “USE OF TYROSINE KINASE INHIBITORS FOR TREATMENT OF PROLACTINOMA” (CEDARS-SINAI MEDICAL CENTER, priority 2010, published 2012).

Assay [1] relates to GH3 cells stably expressing HER2CA. Briefly: Realtime PCR of PRL and GH mRNA in GH3 stable transfectants. Format: cell-based, rat. The note with it: each respective transfectant (pcDNA3, HER2CA); 5 nM EGF or 6 nM HRG. The method, then: A. […] C. GH and PRL secretion in the culture medium determined by RIA. Hormone secretion levels were normalized for cell numbers, Values are mean±SEM. *p<0.05, **p<0.01. […] GH3 rat lacto-somatotroph tumor cells secreting PRL and GH were purchased from the American Type Culture Collection. HER2CA cells were generated by transfection with […]) purchased from Addgene (Addgene plasmid 16259). Stable colonies were selected in the presence of 500 μg/ml G418 (Invitrogen). A vector control cell line pcDNA3 was simultaneously established by transfecting pcDNA3 that lacked inserted cDNA. […] After synchronization by serum starvation (medium containing 0.2% bovine serum albumin for 24 h), cells with treatment agents was grown in fresh serum-depleted medium (0.2% bovine serum albumin), and samples collected at the indicated times. Total RNA was extracted with Trizol reagent (Invitrogen) according to instructions of the manufacturer. The amount and the integrity of RNA were assessed by measurement of absorbance at 260 and 280 nm. Total RNA was reverse-transcribed into first-strand cDNA using iScript cDNA synthesis kit (Bio-Rad Laboratories, Inc.) according to the manufacturer. Quantitative PCR reactions were carried out in the iQ5 Multicolor Real-time PCR Detection System (Bio-Rad Laboratories, Inc.) as described (8). […] Primer sequences (Invitrogen) were [NT] rRNA forward ([…] rRNA reverse ([NT] (human (3-actin [NT] (human (3-actin […]).

For assay [2] the test system is unchanged. Put plainly: RIA of PRL and GH secretion in culture medium of GH3 stable transfectants. Format: cell-based, rat. To be noted: each respective transfectant (pcDNA3, HER2CA); 5 nM EGF or 6 nM HRG. How it is done:
μM) for the indicated times, and Realtime PCR analysis performed. C. GH and PRL secretion in the culture medium determined by RIA. Hormone secretion levels were normalized for cell numbers, Values are mean±SEM. *p<0.05, **p<0.01.
GH3 rat lacto-somatotroph tumor cells secreting PRL and GH were purchased from the American Type Culture Collection. HER2CA cells were generated by transfection with pcDNA3-HER2CA (V654E) purchased from Addgene (Addgene plasmid 16259). Stable colonies were selected in the presence of 500 μg/ml G418 (Invitrogen). A vector control cell line pcDNA3 was simultaneously established by transfecting pcDNA3 that lacked inserted cDNA. After selection and propagation of stable transfectants, cells were cultured in DMEM/F12 medium containing 15% horse serum, 2.5% FBS, penicillin/streptomycin, and 500 μg/m G418. After synchronization by serum starvation (medium containing 0.2% bovine serum albumin for ˜24 h), cells with treatment agents was grown in fresh serum-depleted medium (0.2% bovine serum albumin), and samples collected at the indicated times.
RIAs for rat GH and PRL were performed in duplicate, using reagents provided by the National Hormone and Pituitary Program, National Institute of Diabetes and Digestive and Kidney Diseases (Harbor-UCLA Medical Center, Torrance, Calif., USA). Iodination of GH and PRL (5 μg) with iodine-125 (500 μCi) (PerkinElmer life & Analytical Sciences, Boston, Mass., USA) mixed with 0.1 mg Iodo-Gen (Pierce, Rockford, Ill.) was performed using 10-ml columns prepared by G-75 Sephadex (Sigma Chemical Co.). Low interspecies cross-reactivity of the GH and PRL assays were previously shown (8).

Assay [3] shares this test system. Briefly: Soft agarose colony-forming assay, HER2CA transfectants. Format: cell-based, rat. To be noted: HER2CA transfectants, 10 d after seeding. The method, then: B. GH3 cells stably expressing HER2CA or pcDNA3 were plated (4,000 per well) in 96 well plates for the indicated times, and WST assay performed. C. […] Values are mean±SEM. *p<0.05, ** p<0.01, ^‡p<0.05 vs pcDNA3 control, ^†p<0.05 vs HER2CA control, ^‡‡p<0.05 vs pcDNA3 control, ^††p<0.05 vs HER2CA control.
Base layers consisting of growth medium containing 0.6% low-melting point agarose (Invitrogen) were poured onto 6-well plates and allowed to solidify. Cells (8×10^3 per well) were plated in triplicate in top layers consisting of growth medium containing 0.3% agarose. Seven to ten days later, cells were stained with 0.2% iodonitrotetrazolium chloride (Invitrogen), and colonies composed of 50 cells were counted manually in 5 randomly selected fields.

The subject of assay [4] is human prolactinoma cells. Put plainly: Realtime PCR of PRL in primary human prolactinoma cell cultures. Format: cell-based. The note with it: Tumor B; 0.1-5 μM, 24 hr, in the absence of added EGF. How it is done:
A, B, D, and E. After trans-sphenoidal surgery of human prolactinomas, tumor cells were cultured. […] PRL levels in culture media were measured using RIA (B). H&E and PRL staining of tumor and confocal immunocytochemistry of EGFR and HER2 (Tumor A) (C), or for Tumor B (F). Magnification of these figures was 100×. […] PRL levels in culture media were measured using RIA (E). Prolactinoma cells (Tumor B) were treated with U0126 (0.1-5 μM) for 24 hr, and Realtime PCR of PRL performed (G).
Total RNA was extracted with Trizol reagent (Invitrogen) according to instructions of the manufacturer. The amount and the integrity of RNA were assessed by measurement of absorbance at 260 and 280 nm. Total RNA was reverse-transcribed into first-strand cDNA using iScript cDNA synthesis kit (Bio-Rad Laboratories, Inc.) according to the manufacturer. Quantitative PCR reactions were carried out in the iQ5 Multicolor Real-time PCR Detection System (Bio-Rad Laboratories, Inc.) as described (8). Certified RT^2 primer assays for rat GH, PRL and human PRL were purchased from SuperArray. Primer sequences (Invitrogen) were 5′-[…]-3′ (18S rRNA forward (F)), 5′-[…]-3′ (18S rRNA reverse (R)), 5′-[…]-3′ (human (3-actin F), 5′-[…]-3′ (human (3-actin R), 5′-[…]-3′ (human GAPDH F), 5′-[…]-3′ (human GAPDH R).
Human prolactinoma tissues were obtained at the time of surgery (Pituitary Center, Cedars-Sinai Medical Center) and transferred in 0.3% BSA containing DMEM according to an IRB-approved protocol. After washing with medium, tumor tissues were chopped with a sterile scalpel into approximately 1-2 mm pieces. Tissues were rinsed and digested with DMEM containing 0.3% BSA, 0.35% collagenase, and 0.15% hyaluronidase at 37° C. for 30 min The mixture was centrifuged at 1,500 rpm for 5 min at 4° C., and the cell pellet resuspended in an appropriate volume of culture medium containing 10% FBS and antibiotics in 48 well plates. After 24 hr incubation with serum depleted starvation medium (DMEM with 0.3% BSA), treatment agents were added with fresh serum-depleted medium (0.3% BSA), and medium collected for RIA. RNA was extracted after 24 hr treatment. Medium was also collected at baseline. To normalize for cell number effect, the PRL value of treated medium was divided by that of pre-treatment starvation medium to obtain a treated value for each well (n=4).

On to “EGF: epidermal growth factor, ErbB family receptor ligand, from Sigma (NSDSECPLSHDGYCLHDGVCMYIEALDKYACNCVVGYIGERCQYRDLKWWELR; Epidermal growth factor; UniProt P01133 971-1023, looked up)”, for which, in assay [1], the “induction of PRL expression” value is reported as “approximately 2 fold”. In addition, in assay [2], the “induction of PRL secretion” value is “approximately 2 fold”. Further, the “enhancement of colony formation in soft agar” value in assay [3] is recorded as around 8 fold.
`N#CC(=C(/N)Sc1ccccc1N)/C(C#N)=C(\N)Sc1ccccc1N` [U0126]: the “suppression of human PRL expression” value in assay [4] is around 55%.
